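A five-concentration, 48-hour dose response in 96-well plates underlies each endpoint, interpolated linearly between surrounding concentrations. The concentration for full growth arrest is given as TGI.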

Among the test systems are A498 renal; BT-549 breast; DLD-1 colon; DMS 273 small cell lung; HT29 colon; LXFL 529 NSCLC; NCI-H522 lung; OVCAR-8 ovarian; SN12C renal; SNB-78 CNS; TK-10 renal; UACC-62 melanoma.
Holding throughout (experiment): NCI anticancer screen, dose series, 48 h

With `COc1c(O)c(O)cc2c1-c1ccc(OC)c(=O)cc1C(NC(C)=O)CC2` (centres undefined), the TGI was 89 µM in the test with A498 renal; 14.9 µM in the test on BT-549 breast; greater than 100 µM in the test with DLD-1 colon; greater than 59.8 µM in the test on DMS 273 small cell lung; 16 µM in the test with HT29 colon; 25.2 µM in the test with LXFL 529 NSCLC. The TGI with NCI-H522 lung is 3.5 µM; in the test with OVCAR-8 ovarian, 62.2 µM; in the test on SN12C renal it was 42.5 µM; with SNB-78 CNS, greater than 100 µM; in the test on TK-10 renal, greater than 100 µM; in the test on UACC-62 melanoma, 24.8 µM.

Turning to `COc1cc(CC(C)N)ccc1O` (centres undefined), the TGI with A498 renal, in the test on DLD-1 colon, with DMS 273 small cell lung, in the test with HT29 colon, with LXFL 529 NSCLC and with NCI-H522 lung was greater than 100 µM each time. Also, the TGI with OVCAR-8 ovarian, in the test on SN12C renal, with SNB-78 CNS, in the test on TK-10 renal and with UACC-62 melanoma was greater than 100 µM each time.

For the compound `CC1=C[C@@H](C)C[C@]2(C)CC[C@H](O2)[C@]23CC[C@](C(=O)O)(C[C@H](O2)[C@@H]2O[C@@](C)(CC2=O)[C@@H](O)[C@H]2CC[C@@]4(CCC[C@@H](O4)[C@H](C)C(=O)O[C@H]4C[C@H]([C@]5(O)OCC[C@H](C)[C@@H]5O)O[C@H]4C=C1)O2)O3`, the TGI in the test on A498 renal, in the test with BT-549 breast, in the test with HT29 colon, in the test on NCI-H522 lung, with OVCAR-8 ovarian and in the test with SN12C renal was greater than 10 µM each time. The TGI in the test on TK-10 renal and with UACC-62 melanoma was greater than 10 µM each time.

In the case of `COc1cc([C@@H]2c3cc4c(cc3[C@@H](c3c(O)cc(O)c5c3O[C@H](c3ccc(O)c(O)c3)[C@@H](O)C5)[C@H]3COC(=O)[C@H]23)OCO4)cc(OC)c1O`, the TGI in the test with A498 renal, in the test on BT-549 breast, with HT29 colon, in the test with NCI-H522 lung, in the test with OVCAR-8 ovarian and in the test with SN12C renal was greater than 100 µM in each case. The TGI in the test with TK-10 renal and in the test on UACC-62 melanoma was greater than 100 µM throughout.

(Values after PubChem BioAssay (NCI).)
